Assay in all cases: NCI-60 cell line screen, 48 h
Assay [1] deals with SNB-19.
In assay [2] the test system is T47D.
Assay [3] deals with M14.
Assay [4] has as its system UACC-257.
Assay [5] concerns LOX IMVI.
Assay [6] relates to HL-60.
Assay [7] relates to HOP-92.
Assay [8] concerns A549.
Assay [9] concerns SR.
For assay [10], the system named is SF-539.
The test system of assay [11] is U-251.
In assay [12] the test system is UACC-62.
In assay [13] the test system is HCT-15.
In assay [14] the test system is NCI/ADR-RES.
Assay [15] relates to OVCAR-8.
The test system of assay [16] is SNB-75.
For assay [17], the system named is Hs-578T.
Assay [18] deals with MOLT-4.
Assay [19] deals with MDA-MB-435.
For assay [20], the system named is CAKI-1.

The structures appear in SMILES notation. “And” between values parts separate entries of the source, which are not always exact repeats. Equal entries are not always repeated.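 Method: 48-hour compound exposure of cells in 96-well plates, five concentrations, linear interpolation of endpoints. GI50 marks 50% less growth.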 The source made the active and inactive calls. Rule as the data show it: active = GI50 up to about 1.1 µM and inactive = higher.

`N/C(=N\c1ccc(Cl)cc1)NS(=O)(=O)c1ccc(S(=O)(=O)c2ccccc2)s1`: the GI50 in assay [1] is 33.8 µM (inactive); in assay [2] it was 17 µM (inactive); in [3] it was 17.9 µM (inactive); in [4], 14.8 µM (inactive); in assay [5], 16.3 µM (inactive); in [6], 22.3 µM (inactive). Also, the GI50 is 19.7 µM (inactive) in assay [7]; 23.9 µM (inactive) in assay [8]; 24.8 µM (inactive) in assay [9]; 22.7 µM (inactive) in assay [10]; 14.4 µM (inactive) in assay [11]; 11.3 µM (inactive) in assay [12]. The GI50 in assay [13] is 17.5 µM; in assay [14], 18 µM (inactive); in assay [15], 20 µM (inactive); in [16], 35.7 µM (inactive); in assay [17] it was 24 µM (inactive); in assay [18] it was 18 µM (inactive).

Turning to `CCOC(CI)O[C@@H]1C=C[C@H](OC(C)=O)C1` (stereo partly drawn), the GI50 in [1] was > 100 µM (inactive); in assay [19], > 100 µM (inactive); in assay [20], 60.7 µM (inactive); in [2], > 100 µM (inactive); in [3], > 100 µM (inactive); in [4] it was > 100 µM (inactive). Moreover, the GI50 in assay [8] was > 100 µM (inactive); in assay [10], > 100 µM (inactive); in assay [11], > 100 µM (inactive); in [12], > 100 µM (inactive); in assay [13] it was more than 100 µM; in assay [14], > 100 µM (inactive). Further, the GI50 in [15], in [16] and in [18] was > 100 µM (inactive) in each case.

On to `C[C@@H]1C(=O)O[C@H]1[C@H](O)CO`, for which the GI50 in [1], in assay [19], in assay [20], in assay [2], in assay [3] and in assay [4] was > 100 µM (inactive) in each case. Moreover, the GI50 is > 100 µM (inactive) in assay [5]; > 100 µM (inactive) in assay [6]; 63.1 µM (inactive) in assay [7]; > 100 µM (inactive) in assay [8]; > 100 µM (inactive) in [11]; > 100 µM (inactive) in [12]. Moreover, the GI50 in assay [13] is more than 100 µM; in assay [14], > 100 µM (inactive); in assay [15] it was > 100 µM (inactive); in assay [16], > 100 µM (inactive); in assay [18], 34.1 µM (inactive).

In the case of `O=C(CNc1c(Cl)cccc1Cl)NC1C=Cc2ccc(S(=O)(=O)Nc3c(Cl)cccc3Cl)cc2C1=O` (stereo not drawn), the GI50 in [1] was > 100 µM (inactive); in assay [19] it was > 100 µM (inactive); in assay [20], 47.5 µM (inactive); in [3], > 100 µM (inactive); in [4], > 100 µM (inactive); in assay [5], 88.7 µM (inactive). Moreover, the GI50 is 75.2 µM (inactive) in assay [6]; 18.5 µM (inactive) in assay [7]; > 100 µM (inactive) in [8]; > 100 µM (inactive) in assay [9]; > 100 µM (inactive) in [10]; > 100 µM (inactive) in [11]. Further, the GI50 in assay [12] was 79.6 µM (inactive); in assay [13] it was 79.1 µM; in assay [14] it was > 100 µM (inactive); in assay [15] it was > 100 µM (inactive); in assay [16], 16.7 µM (inactive); in assay [17] it was 6.71 µM (inactive). In addition, the GI50 in [18] was > 100 µM (inactive).

As for `O=C1C(=Cc2ccccc2O)N=C(c2ccccc2)N1n1c(-c2ccccc2)nc2ccccc2c1=O`, the GI50 in [1] is 48 µM (inactive); in [19], 36.8 µM (inactive); in assay [20], 25.8 µM (inactive); in assay [2], 26.2 µM (inactive); in assay [3], 19.3 µM (inactive); in [4], 29.9 µM (inactive). Besides, the GI50 in assay [5] was 41.7 µM (inactive); in [6] it was 15.2 µM (inactive); in [8], 33.6 µM (inactive); in assay [9], 32.9 µM (inactive); in assay [10] it was 21.8 µM (inactive); in assay [12] it was 33.7 µM (inactive). Further, the GI50 in [13] is 40.4 µM; in [15], 31.3 µM (inactive); in assay [16] it was 23.4 µM (inactive); in [17], 35.6 µM (inactive); in [18] it was 26.7 µM (inactive).

As for `C[C@H]1CCC/C=C/[C@@H]2C[C@H](O)C[C@H]2[C@H](O)/C=C/C(=O)O1` [BREFELDIN A], the GI50 in assay [2] was 124 nM (active) and 71.5 nM (active); in assay [3], < 16.1 nM (active) and 26.1 nM (active); in [4], 27.5 nM (active) and 16 nM (active); in assay [5], 13.2 nM (active) and 12.3 nM (active); in assay [7], 80 nM (active) and 41.7 nM (active); in assay [10], < 21.4 nM (active) and 21.1 nM (active). The GI50 was 68.1 nM (active) and 36.7 nM (active) in assay [11]; < 14.2 nM (active) and 18.2 nM (active) in assay [12]; 0.0692 µM and 0.043 µM in assay [13]; < 14.9 nM (active) and 27.4 nM (active) in [14]; < 12.9 nM (active) and 22.2 nM (active) in [15]; < 10 nM (active) and 8.97 nM (active) in [16]. In addition, in assay [17], the GI50 was < 10 nM (active) and 10.1 nM (active).

Consider `CN(C)CCOC1(Cc2ccc(Cl)cc2Cl)CCC(C(C)(C)C)CC1` (stereo not drawn), for which the GI50 in assay [1] was 1.75 µM (inactive); in [19], 1.54 µM (inactive); in assay [20] it was 2.25 µM (inactive); in assay [3] it was 1.79 µM (inactive); in assay [4] it was 2.04 µM (inactive); in assay [5], 1.44 µM (inactive). Also, the GI50 was 3.18 µM (inactive) in assay [8]; 2.52 µM (inactive) in assay [9]; 4.36 µM (inactive) in [10]; 1.46 µM (inactive) in assay [11]; 2.12 µM (inactive) in assay [12]; 1.85 µM in assay [13]. Also, the GI50 in [14] is 2.3 µM (inactive); in [15], 1.94 µM (inactive); in assay [16] it was 1.67 µM (inactive); in assay [17], 1.97 µM (inactive); in [18], 1.86 µM (inactive).

For the compound `CC(=O)OCC1OC(c2nnc(C)o2)=CC(OC(C)=O)C1OC(C)=O` (stereo not drawn), the GI50 in assay [1], in assay [19], in assay [20], in assay [4], in [5] and in [6] was > 100 µM (inactive) each time. Further, the GI50 in assay [8], in [9], in assay [10], in assay [11], in assay [14] and in assay [15] was > 100 µM (inactive) in each case. In addition, the GI50 in [16], in [17] and in [18] was > 100 µM (inactive) in each case.

On to `CC(C)(C)N/C(N)=N/C#N`, for which the GI50 in assay [1], in assay [19], in assay [20], in assay [3], in [4] and in assay [5] was > 100 µM (inactive) throughout. The GI50 in assay [6], in [7], in assay [8], in assay [9], in assay [10] and in [11] was > 100 µM (inactive) each time. Moreover, the GI50 in [12] was > 100 µM (inactive); in assay [13] it was more than 100 µM; in assay [14] it was > 100 µM (inactive); in [15], > 100 µM (inactive); in assay [16], > 100 µM (inactive); in assay [17] it was > 100 µM (inactive). For the same compound, the GI50 in [18] is > 100 µM (inactive).

`CC1=C(C)C(=O)C2=C(OCCO2)C1=O`: the GI50 in assay [1] is 17.3 µM (inactive); in [19], 2.82 µM (inactive); in [20] it was 17.6 µM (inactive); in assay [2], 2.39 µM (inactive); in assay [3] it was 19.3 µM (inactive); in assay [4], 13.8 µM (inactive). The GI50 in [5] was 12.1 µM (inactive); in assay [6], 2.96 µM (inactive); in [7], 2.75 µM (inactive); in [8], 21.5 µM (inactive); in assay [9] it was 4.09 µM (inactive); in assay [10] it was 19.9 µM (inactive). In addition, the GI50 was 16.1 µM (inactive) in assay [11]; 17.5 µM in assay [13]; 3.54 µM (inactive) in [14]; 3.08 µM (inactive) in [15]; 2.55 µM (inactive) in assay [18].

Turning to `CC1=NC(=Cc2ccc(Cl)cc2)C(=O)N1n1c(-c2ccccc2)nc2ccccc2c1=O`, the GI50 in [1] is 48.6 µM (inactive); in [19], 43.4 µM (inactive); in assay [20] it was 17.8 µM (inactive); in assay [2], 25.4 µM (inactive); in assay [3], 39.4 µM (inactive); in assay [4], 25 µM (inactive). The GI50 in assay [5] is 38.5 µM (inactive); in [6] it was 26.3 µM (inactive); in assay [8], 39.8 µM (inactive); in [9] it was 33.5 µM (inactive); in assay [10] it was 35.1 µM (inactive); in assay [12], 33.2 µM (inactive). Besides, the GI50 is 44.4 µM in assay [13]; 39.4 µM (inactive) in [15]; 38.6 µM (inactive) in assay [16]; 18.1 µM (inactive) in assay [17]; 34.5 µM (inactive) in assay [18].

As for `O=C(Nc1ccc2[nH]c(C(=O)N3CC(CCl)c4c3cc([N+](=O)[O-])c3ccccc43)cc2c1)Nc1ccc2[nH]c(C(=O)N3CC(CCl)c4c3cc([N+](=O)[O-])c3ccccc43)cc2c1` (stereo not drawn), the GI50 was > 100 µM (inactive) in assay [1]; > 100 µM (inactive) in assay [19]; > 100 µM (inactive) in [20]; > 100 µM (inactive) in assay [2]; 31.3 µM (inactive) in assay [3]; > 100 µM (inactive) in assay [4]. The GI50 in [7] is > 100 µM (inactive); in [8] it was > 100 µM (inactive); in [10], > 100 µM (inactive); in [11], > 100 µM (inactive); in assay [12], > 100 µM (inactive); in assay [13], more than 100 µM. For the same compound, the GI50 in [14] and in assay [16] was > 100 µM (inactive) each time.
